In publication PMC12292992, “Betulinic Acid ω-Triphenylphosphonium Alkyl Esters: Antiproliferative Activities and In Silico Pharmacokinetic Profiles” (Biomedicines, 2025):

Legend:
AU565 cells = assay: MTT cell viability assay, mammary carcinoma; assay type: cell-based, human; conditions: for IC50: Homo sapiens
Description: (§1) Human cell lines were obtained from the American Type Culture Collection (ATCC, Manassas, VA, USA). Normal lung MRC-5 fibroblasts (ATCC® CCL-171™), SK-MES-1 lung cancer cells (ATCC® HTB-58™), and J82 bladder carcinoma cells (ATCC® HTB-1™) were grown as monolayers in Eagle’s minimum essential medium (MEM) with Earle’s salts, 2 mM L-glutamine, and 1.5 g/L sodium bicarbonate. Gastric epithelial AGS cells (ATCC® CRL-1739™) were grown as monolayers in Ham’s F-12 medium containing 1 mM L-glutamine and 1.5 g/L sodium bicarbonate. Promyelocytic leukemia HL-60 (ATCC® CCL-240™), colorectal adenocarcinoma HCT-15 (ATCC® CCL-225™), metastatic colorectal COLO205 (ATCC® CCL-222™), and breast cancer AU565 (ATCC® CRL-2351™, ER^−-HER2/neu^+) cells were grown in suspension in an RPMI-1640 medium containing 1 mM sodium pyruvate and 2.0 g/L sodium bicarbonate. Human breast cancer MCF-7 (ATCC® HTB-22™, ER^+-HER2/neu^−) and MDA-MB-231 (ATCC® HTB-26™, ER^−-HER2/neu^−) cells were grown as monolayers in DMEM medium. All media were supplemented with 10% heat-inactivated fetal bovine serum (HI-FBS), 100 IU/mL penicillin G, and 100 µg/mL streptomycin. Cells were maintained at 37 °C in a humidified incubator with 5% CO2.
(§2) MRC-5, SK-MES-1, J82, and AGS cells were seeded at a density of 5 × 10^4 cells/mL in 96-well plates. COLO205, HCT-15, MCF-7, MDA-MB-231, and AU565 cells were seeded at 1 × 10^5 cells/mL, while HL-60 cells were plated at 3 × 10^5 cells/mL. A volume of 100 µL of the cell suspension was added to each well. After 24 h, the compounds were added in increasing concentrations (ranging from 0 to 100 µM), and cells were incubated for 24, 48, or 72 h. The compounds were dissolved in DMSO and diluted in complete medium to a final concentration of 0.5% DMSO. Cells treated with 0.5% DMSO in complete medium were used as viability controls (100%). Etoposide (98% purity, Sigma-Aldrich, St. Louis, MO, USA) was used as the reference compound. Each concentration was tested in quadruplicate, and each experiment was performed twice using independent cell preparations. At the end of the incubation period, cell viability was determined using the MTT reduction assay. The results were transformed into percentages relative to controls, and IC50 values were obtained graphically from the dose–response curves. Results are presented as IC50 values ± standard deviation (SD).

J82 cells = assay: MTT cell viability assay, bladder carcinoma; assay type: cell-based; conditions: Homo sapiens, J82, 72 h
Description: as §1, §2

human cancer cell lines = assay: MTT cell viability, summary over the human cancer cell lines; assay type: cell-based; conditions: summary statement
Description: as §1, §2

COLO205 cells [1] = assay: Annexin V/propidium iodide double staining, flow cytometry; assay type: cell-based, human; conditions: 24 h
Description: (§3) The type of cell death induced by the BA-C4-TPP^+Br^− was assessed by flow cytometry, using Annexin V/propidium iodide (AV/PI) double staining, following the instructions of the Annexin V-FITC Apoptosis Detection Kit (Abcam, Cambridge, UK). Cells were cultured at 5 × 10^4 cells/well in 24-well plates and incubated overnight. Afterwards, cells were treated with increasing concentrations of BA-C4-TPP^+Br^− (1, 2.5, 5, or 10 µM for COLO205 and HCT-15 cells) for 24 h. Finally, cells were trypsinized, resuspended in annexin V binding buffer 1X, adding AV and PI, and incubated for 5 min at room temperature, protected from light. Control corresponds to cells incubated with DMSO 1%. Fluorescence of each probe was assessed by flow cytometry (FACSAria®III, BD Biosciences, Franklin Lakes, NJ, USA). Wavelengths used were 488Ex/530Em nm for AV-FITC and 488Ex/575Em nm for PI. Results are expressed as total apoptotic cells (percentage of AV+/PI− and AV+/PI+ cells), necrotic cells (percentage of AV-/PI+ cells), and live cells (percentage of AV-/PI− cells). Cyflogic software (non-commercial 6th version, CyFlo Ltd., Turku, Finland) was used for data processing.

HCT-15 cells [2] = assay: as above; assay type: cell-based, human; conditions: 24 h
Description: as §3

COLO205 cells [3] = assay: LDH release assay; assay type: cell-based, human; conditions: COLO205, 0.5–5 μM, 24 h
Description: (§4) COLO205 and HCT-15 cells were cultured at 2 × 10^4 cells/well in 96-well plates and incubated for 24 h. Afterwards, BA-C4-TPP^+Br^− was added in increasing concentrations (0.5, 1, 2.5, and 5 µM) for 24 h. Finally, the supernatant of each well was transferred to a new plate (10 µL/well), and the LDH reaction mix was added (100 µL/well). The plate was incubated for 20 min at room temperature, and the absorbance of each well was measured using a Varioskan® Flash plate reader (Thermo Scientific, Waltham, MA, USA) at 450 nm. All values are expressed as a percentage of LDH activity relative to cells incubated with Cell Lysis solution (provided in the kit) for 24 h.

HCT-15 cells [4] = assay: LDH release assay; assay type: cell-based, human
Description: as §4

SK-MES-1 cells = assay: MTT cell viability assay, lung cancer; assay type: cell-based; conditions: Homo sapiens, SK-MES-1, 72 h
Description: as §1, §2

## C=C(C)[C@@H]1CC[C@]2(C(=O)OCCCC[P+](c3ccccc3)(c3ccccc3)c3ccccc3)CC[C@]3(C)[C@H](CC[C@@H]4[C@@]5(C)CC[C@H](O)C(C)(C)[C@@H]5CC[C@]43C)[C@@H]12 [BA-C4-TPP^+Br^−, 4-Triphenylphosphoniobutyl 3β-hydroxylup-20(29)-en-28-oate bromide]
AU565 cells; AU565 cells at 48 h
  increase in potency compared to non-modified BA scaffold: ~15 fold
AU565 cells; AU565, 24 h
  IC50: 1.66 ± 0.12 µM
AU565 cells; AU565, 48 h
  IC50: 0.6 ± 0.05 µM
J82 cells
  IC50: 0.84 ± 0.02 µM
Human cancer cell lines; Homo sapiens, 48 and 72 h of treatment
  IC50: < 1 µM
Human cancer cell lines; nine human cancer cell lines, relative to BA
  increase in potency: over 100 fold
COLO205 cells [1]; COLO205, 1 μM
  apoptosis induction: ~14%
COLO205 cells [1]; COLO205, 2.5 μM
  apoptosis induction: ~34%
COLO205 cells [1]; COLO205, 5 μM
  necrotic cell death: 15%
COLO205 cells [1]; COLO205, initial concentration (1 μM)
  necrotic cell death: 5%
HCT-15 cells [2]; HCT-15, 2.5 μM
  apoptosis induction: 12%
  necrosis induction: 7%
HCT-15 cells [2]; HCT-15, 10 μM
  necrotic cell death: ~30%
COLO205 cells [3]
  LDH release: no significant LDH release
HCT-15 cells [4]; HCT-15, 2.5 μM, 24 h, relative to Cell Lysis solution
  LDH release: 18%
HCT-15 cells [4]; HCT-15, 24 h
  LDH release relative to control (DMSO): double the control (DMSO) value
SK-MES-1 cells
  IC50: 0.32 ± 0.08 µM
